Patent US20240381872A1, “SUBSTITUTED 2,3-DIHYDRO[1,3]THIAZOLO[4,5-B]PYRIDINES, SALTS THEREOF AND THEIR USE AS HERBICIDALLY ACTIVE SUBSTANCES” (BAYER AKTIENGESELLSCHAFT, priority 2021, published 2024)

What was measured:
Format in all cases: in vivo
[1] = test system: Digitaria sanguinalis (DIGSA); assay: Herbicidal pre-emergence action, section C (Table C12); conditions: visual grading after ca. 3 weeks; for pest or weed control at 80 g/ha: Digitaria sanguinalis, pre-emergence, 504 h, read-out: pre-emergence activity against DIGSA in %
How it was run: (§1)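 Visual damage rating at ca. 3 weeks relative to untreated controls, expressed as % effect (100% = plants died, 0% = like controls). Pre-emergence treatment: WP or EC formulations applied to the soil surface over sown seeds in sandy loam, 600 l water/ha, 0.5% additive.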

[2] = test system: Echinochloa crus-galli (ECHCG); assay: Herbicidal pre-emergence action, section C (Table C3); conditions: visual grading after ca. 3 weeks vs untreated controls; for pest or weed control at 80 g/ha: Echinochloa crus-galli, pre-emergence, 504 h, read-out: pre-emergence activity against ECHCG in %
How it was run: as §1

[3] = test system: Polygonum convolvulus (POLCO); assay: Herbicidal pre-emergence action, section C (Table C7); conditions: visual grading after ca. 3 weeks
How it was run: as §1

Kochia scoparia (KCHSC) = assay: Herbicidal post-emergence action, section B (Table B4); conditions: visual rating about 3 weeks after treatment vs untreated controls
How it was run: (§2)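 Percent effect, judged by eye against untreated controls (0% = like control, 100% = plants dead), was recorded about 3 weeks after a foliar spray. The spray, at 600 liters per hectare with 0.5% additive, was applied to one-leaf-stage plants grown in sandy loam.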

[4] = test system: Amaranthus retroflexus (AMARE); assay: Herbicidal post-emergence action, section B (Table B11); conditions: visual rating about 3 weeks after treatment vs untreated controls; for post-emergence activity against AMARE in % / pest or weed control at 320 g/ha: application rate 320 g/ha
How it was run: as §2

[5] = test system: Abutilon theophrasti (ABUTH); assay: Herbicidal post-emergence action, section E (Table E1); conditions: assessed visually after ca. 3 weeks
Description: Seeds of mono- and dicotyledonous weed plants and crop plants were sown, in plastic or organic planting pots, in sandy loam, covered with soil and grown in a greenhouse under controlled growth conditions. 2 to 3 weeks after sowing, the test plants were sprayed in the single-leaf stage. The compounds according to the invention, formulated in form of wettable powders (WP) or as emulsifiable concentrates (EC), were sprayed onto the green plant parts as aqueous suspension or emulsion, with the addition of 0.5% of an additive, at an application rate of 600 l of water/ha (converted). The test plants were placed in the greenhouse for ca. 3 weeks under optimum growth conditions, and then the effect of the preparations was assessed visually in comparison with untreated controls (herbicidal effect in percent (%): 100% effect=plants have died off, 0% effect=as control plants).

Veronica persica (VERPE) = assay: Herbicidal pre-emergence action, section C (Table C10); conditions: visual grading after ca. 3 weeks
Description: Seeds of mono- and dicotyledonous weed plants and crop plants were sown, in plastic or organic planting pots, in sandy loam and covered with soil. The compounds according to the invention, formulated in the form of wettable powders (WP) or as emulsifiable concentrates (EC), were applied to the surface of the covering soil as aqueous suspension or emulsion, with the addition of 0.5% of an additive, at an application rate of 600 l of water/ha (converted). Following treatment, the pots were placed in a greenhouse and kept under optimum growth conditions for the test plants. The visual grading of the damage to the test plants was carried out after ca. 3 weeks in comparison to untreated controls (herbicidal effect in percent (%): 100% effect=plants have died off, 0% effect=as control plants).

Glycine max (GLXMA) = assay: Post-emergence effects on crop plants, section F (Table F4); conditions: crop plant damage, application rate 80 g/ha
How it was run: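 Visual % damage versus untreated controls (100% = plants died, 0% = as control), assessed ca. 3 weeks after post-emergence spraying. Greenhouse plants in sandy loam were treated at the single-leaf stage with WP/EC formulations, 0.5% additive, 600 l water/ha, at 320 g/ha or below.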

[6] = test system: Digitaria sanguinalis (DIGSA); assay: Herbicidal pre-emergence action, section A (Table A12); conditions: application rate 320 g/ha; for pest or weed control at 320 g/ha: Digitaria sanguinalis, 504 h, read-out: pre-emergence activity against DIGSA in %
How it was run: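 Visual scoring at approximately 3 weeks, relative to untreated pots, gave percent effect after compounds in WP or EC form were sprayed onto covering soil of sown seeds (sandy loam) in water with 0.5% additive at 600 l/ha, then kept in greenhouse.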

[7] = test system: Amaranthus retroflexus (AMARE); assay: Herbicidal pre-emergence action, section C (Table C11); conditions: visual grading after ca. 3 weeks; for pest or weed control at 320 g/ha: Amaranthus retroflexus, pre-emergence, 504 h, read-out: pre-emergence activity against AMARE in %
How it was run: as §1

[8] = test system: Abutilon theophrasti (ABUTH); assay: Herbicidal post-emergence action, section B (Table B1); conditions: rated visually after about 3 weeks
How it was run: as §2

[9] = Fallopia convolvulus, pre-emergence, 504 h, application rate 320 g/ha, read-out: pre-emergence activity against POLCO in %
[10] = Abutilon theophrasti, post-emergence, 504 h, application rate 320 g/ha, read-out: post-emergence activity against ABUTH in %
[11] = Veronica persica, pre-emergence, 504 h, application rate 320 g/ha, read-out: pre-emergence activity against VERPE in %
[12] = Bassia scoparia, post-emergence, 504 h, application rate 320 g/ha, read-out: post-emergence activity against KCHSC in %
[13] = Amaranthus retroflexus, post-emergence, 504 h, read-out: post-emergence activity against AMARE in %

| SMILES | pest or weed control at 80 g/ha ([1]; application rate 80 g/ha) [%] | pre-emergence activity against ECHCG in % ([2]; application rate 80 g/ha) [%] | post-emergence activity against GLXMA in % (Glycine max (GLXMA)) [%] | post-emergence activity against KCHSC in % (Kochia scoparia (KCHSC); application rate 320 g/ha) [%] | post-emergence activity against AMARE in % [4] [%] | pre-emergence activity against DIGSA in % [6] [%] | post-emergence activity against ABUTH in % ([5]; application rate 320 g/ha) [%] | pre-emergence activity against AMARE in % ([7]; application rate 320 g/ha) [%] | pre-emergence activity against VERPE in % (Veronica persica (VERPE); application rate 320 g/ha) [%] | post-emergence activity against ABUTH in % ([8]; application rate 320 g/ha) [%] | pre-emergence activity against DIGSA in % ([1]; application rate 320 g/ha) [%] | pre-emergence activity against POLCO in % ([3]; application rate 320 g/ha) [%] | pre-emergence activity against VERPE in % (Veronica persica (VERPE); application rate 80 g/ha) [%] | post-emergence activity against ABUTH in % ([8]; application rate 1280 g/ha) [%] | also measured |
| --- | --- | --- | --- | --- | --- | --- | --- | --- | --- | --- | --- | --- | --- | --- | --- |
| Cc1cc2c(nc1-c1ccccc1F)NCS2 [Example I-007, 5-(2-fluorophenyl)-6-methyl-2,3-dihydro[1,3]thiazolo[4,5-b]pyridine] | 100 | – | – | – | – | – | – | – | – | – | – | – | – | – | pest or weed control at 80 g/ha ([2]; application rate 80 g/ha): 100%; pest or weed control at 320 g/ha [3, 9]: 80%; pest or weed control at 1280 g/ha (Kochia scoparia (KCHSC); Bassia scoparia, post-emergence, 504 h, application rate 1280 g/ha, read-out: post-emergence activity against KCHSC in %): 90%; pest or weed control at 1280 g/ha ([4]; Amaranthus retroflexus, post-emergence, 504 h, application rate 1280 g/ha, read-out: post-emergence activity against AMARE in %): 90%; pest or weed control at 320 g/ha [5, 10]: 80%; pest or weed control at 320 g/ha (Veronica persica (VERPE); [11]): 80% |
| COC(=O)CCC(=O)N1CSc2cc(C)c(-c3ccccc3F)nc21 [Example I-010] | – | 100 | 0 | 90 | 90 | 100 | 80 | 90 | 90 | 90 | – | – | – | – | pre-emergence activity against DIGSA in % ([1]; application rate 80 g/ha): 100%; pre-emergence activity against POLCO in % ([3]; application rate 80 g/ha): 80% |
| CCS(=O)(=O)N1CSc2cc(C)c(-c3ccccc3F)nc21 [Example I-060, 3-(ethylsulfonyl)-5-(2-fluorophenyl)-6-methyl-2,3-dihydro[1,3]thiazolo[4,5-b]pyridine] | 100 | – | – | – | – | – | – | – | – | – | – | – | – | – | pest or weed control at 80 g/ha ([2]; application rate 80 g/ha): 100%; pest or weed control at 80 g/ha ([3]; Fallopia convolvulus, pre-emergence, 504 h, application rate 80 g/ha, read-out: pre-emergence activity against POLCO in %): 80%; pest or weed control at 320 g/ha (Kochia scoparia (KCHSC); [12]): 90%; pest or weed control at 320 g/ha [4, 13]: 90%; pest or weed control at 320 g/ha [6]: 100%; pest or weed control at 320 g/ha [5, 10]: 80%; pest or weed control at 320 g/ha ([7]; application rate 320 g/ha): 90%; pest or weed control at 80 g/ha (Veronica persica (VERPE); Veronica persica, pre-emergence, 504 h, application rate 80 g/ha, read-out: pre-emergence activity against VERPE in %): 90%; pest or weed control at 1280 g/ha ([8]; Abutilon theophrasti, 504 h, application rate 1280 g/ha, read-out: post-emergence activity against ABUTH in %): 90% |
| Cc1cc2c(nc1-c1ccccc1F)N(C(=O)C1(C)CC(Cl)=NO1)CS2 (stereo not drawn) [Example I-083] | – | 100 | – | 90 | 90 | 100 | – | 90 | – | 90 | 100 | 90 | 80 | – | post-emergence activity against ABUTH in % ([5]; application rate 80 g/ha): 90% |
| Cc1cc2c(nc1-c1ccccc1F)N(S(=O)(=O)Cc1ccc(F)cc1)CS2 [Example I-122] | – | – | 10 | 90 | 90 | 100 | 80 | – | 80 | – | 100 | – | – | 90 | pre-emergence activity against ECHCG in % ([2]; application rate 320 g/ha): 100%; pre-emergence activity against POLCO in % ([3]; application rate 80 g/ha): 80% |
| CCOCCS(=O)(=O)N1C[S+]([O-])c2cc(C)c(-c3ccccc3F)nc21 (stereo not drawn) [Example I-127] | 100 | – | – | – | – | – | – | – | – | – | – | – | – | – | pest or weed control at 320 g/ha [3, 9]: 90%; pest or weed control at 320 g/ha (Kochia scoparia (KCHSC); [12]): 90%; pest or weed control at 320 g/ha [4, 13]: 90%; pest or weed control at 320 g/ha [6]: 100%; pest or weed control at 80 g/ha ([5]; Abutilon theophrasti, post-emergence, 504 h, application rate 80 g/ha, read-out: post-emergence activity against ABUTH in %): 80%; pest or weed control at 320 g/ha ([7]; application rate 320 g/ha): 90%; pest or weed control at 320 g/ha (Veronica persica (VERPE); [11]): 90% |
| COCC1(C(=O)N2CSc3cc(C)c(-c4ccccc4F)nc32)CC(Cl)=NO1 (stereo not drawn) [Example I-128] | – | 100 | – | 90 | 90 | 100 | – | 90 | – | 90 | – | 90 | 80 | – | pre-emergence activity against DIGSA in % ([1]; application rate 80 g/ha): 100%; post-emergence activity against ABUTH in % ([5]; application rate 80 g/ha): 80% |
| Cc1ccccc1-c1nc2c(cc1C)SCN2C(=O)C1(C)CC(Cl)=NO1 (stereo not drawn) [Example I-137] | – | 100 | – | 90 | 90 | 100 | 80 | – | – | – | 100 | 80 | 80 | 90 | pre-emergence activity against AMARE in % ([7]; application rate 80 g/ha): 90% |
| CC1(C(=O)N2CSc3cc(Br)c(-c4ccccc4)nc32)CC(Cl)=NO1 (stereo not drawn) [Example I-139] | – | – | 20 | – | 90 | 100 | 90 | – | 80 | – | 100 | 80 | – | 90 | pre-emergence activity against ECHCG in % ([2]; application rate 320 g/ha): 100%; post-emergence activity against KCHSC in % (Kochia scoparia (KCHSC); application rate 1280 g/ha): 90%; pre-emergence activity against AMARE in % ([7]; application rate 80 g/ha): 90% |
